Ten molecules from article PMC9927415, “Tyrosine Kinase Inhibitors Display Potent Activity against Cryptosporidium parvum” (Microbiology Spectrum, 2022) can be followed below.

Experiment in all cases: KINOMEscan competitive binding, whole panel
The target of assay [1] is T1, panel of 203 kinases (Homo sapiens, UniProt Q9Y6R4).
T1 construct: purchased DiscoverX (KINOMEscan)
The note with it: 10 µM, n=1; kinase MAP3K4; read-out: Percent inhibition MAP3K4. Put shortly: (§1)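 Kinases expressed as T7 bacteriophage fusions; test compound competes with an immobilized ATP-site probe ligand. Kinase still bound to the solid support was quantified and expressed as percentage inhibition.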

For assay [2], the target named is T2, panel of 203 kinases (Homo sapiens, UniProt P21709).
T2 construct: purchased DiscoverX (KINOMEscan)
T2 sequence (P21709 26-976): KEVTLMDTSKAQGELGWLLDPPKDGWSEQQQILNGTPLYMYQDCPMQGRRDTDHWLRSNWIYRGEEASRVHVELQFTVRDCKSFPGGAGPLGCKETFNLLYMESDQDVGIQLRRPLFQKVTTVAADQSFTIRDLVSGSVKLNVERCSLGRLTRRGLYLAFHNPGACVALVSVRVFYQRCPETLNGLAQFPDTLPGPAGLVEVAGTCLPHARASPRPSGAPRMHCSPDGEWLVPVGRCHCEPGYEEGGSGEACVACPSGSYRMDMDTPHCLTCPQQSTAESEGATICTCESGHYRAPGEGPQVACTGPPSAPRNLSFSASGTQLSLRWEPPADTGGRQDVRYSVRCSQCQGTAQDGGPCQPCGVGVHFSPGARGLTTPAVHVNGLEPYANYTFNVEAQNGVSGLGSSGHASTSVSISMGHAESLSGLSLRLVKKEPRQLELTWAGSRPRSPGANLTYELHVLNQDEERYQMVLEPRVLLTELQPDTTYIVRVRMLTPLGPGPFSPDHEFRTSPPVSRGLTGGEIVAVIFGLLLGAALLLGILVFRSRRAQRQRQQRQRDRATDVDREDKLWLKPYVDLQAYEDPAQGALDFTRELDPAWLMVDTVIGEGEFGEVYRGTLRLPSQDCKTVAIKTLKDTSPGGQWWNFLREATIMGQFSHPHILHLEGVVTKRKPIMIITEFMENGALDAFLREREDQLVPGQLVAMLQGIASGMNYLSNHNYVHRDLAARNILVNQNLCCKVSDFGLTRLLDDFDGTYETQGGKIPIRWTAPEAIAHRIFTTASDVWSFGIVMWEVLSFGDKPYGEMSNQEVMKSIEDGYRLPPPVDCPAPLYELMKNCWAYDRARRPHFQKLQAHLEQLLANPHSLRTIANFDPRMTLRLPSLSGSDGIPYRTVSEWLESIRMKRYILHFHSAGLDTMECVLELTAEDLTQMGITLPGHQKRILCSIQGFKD
The note with it: 10 µM, n=1; kinase EPHA1; read-out: Percent inhibition EPHA1. Put shortly:
as §1

The target of assay [3] is T3, panel of 203 kinases (Homo sapiens, UniProt P29323).
T3 construct: purchased DiscoverX (KINOMEscan)
T3 sequence (P29323 19-1055): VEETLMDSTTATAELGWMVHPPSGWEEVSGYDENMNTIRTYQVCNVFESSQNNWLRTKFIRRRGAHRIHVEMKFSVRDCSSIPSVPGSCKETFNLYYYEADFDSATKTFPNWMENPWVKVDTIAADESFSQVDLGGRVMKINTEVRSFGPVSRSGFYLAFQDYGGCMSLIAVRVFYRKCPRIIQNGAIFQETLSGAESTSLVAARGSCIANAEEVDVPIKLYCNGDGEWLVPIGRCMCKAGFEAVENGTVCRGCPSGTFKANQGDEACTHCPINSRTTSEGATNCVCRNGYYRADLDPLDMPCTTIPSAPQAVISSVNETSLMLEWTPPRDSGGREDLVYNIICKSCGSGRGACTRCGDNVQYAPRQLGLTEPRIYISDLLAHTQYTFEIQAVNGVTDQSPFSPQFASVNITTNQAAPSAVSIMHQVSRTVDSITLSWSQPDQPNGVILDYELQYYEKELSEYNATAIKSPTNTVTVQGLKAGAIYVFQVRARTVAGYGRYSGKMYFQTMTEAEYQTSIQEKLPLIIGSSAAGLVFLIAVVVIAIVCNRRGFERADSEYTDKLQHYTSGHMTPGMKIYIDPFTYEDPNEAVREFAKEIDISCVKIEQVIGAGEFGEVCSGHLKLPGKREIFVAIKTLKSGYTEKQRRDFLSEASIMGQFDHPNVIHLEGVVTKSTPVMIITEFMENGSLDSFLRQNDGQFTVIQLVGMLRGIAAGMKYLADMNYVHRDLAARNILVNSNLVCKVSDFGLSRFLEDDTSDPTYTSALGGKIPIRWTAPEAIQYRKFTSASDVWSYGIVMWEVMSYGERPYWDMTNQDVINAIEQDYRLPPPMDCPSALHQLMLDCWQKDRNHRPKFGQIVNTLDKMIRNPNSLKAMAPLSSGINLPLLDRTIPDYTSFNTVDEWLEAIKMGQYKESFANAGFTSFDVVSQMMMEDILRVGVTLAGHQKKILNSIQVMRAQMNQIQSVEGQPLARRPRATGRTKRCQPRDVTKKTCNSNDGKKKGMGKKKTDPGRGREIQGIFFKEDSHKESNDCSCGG
The note with it: 10 µM, n=1; kinase EPHB2; read-out: Percent inhibition EPHB2. Put shortly:
as §1

Assay [4] addresses T4, panel of 203 kinases (Homo sapiens, UniProt Q96NX5).
T4 construct: purchased DiscoverX (KINOMEscan)
The note with it: 10 µM, n=1; kinase CAMK1G; read-out: Percent inhibition CAMK1G. Put shortly: as §1

Assay [5] has as its target T5, panel of 203 kinases (Homo sapiens, UniProt Q09013).
T5 construct: purchased DiscoverX (KINOMEscan)
T5 sequence (Q09013 1-629): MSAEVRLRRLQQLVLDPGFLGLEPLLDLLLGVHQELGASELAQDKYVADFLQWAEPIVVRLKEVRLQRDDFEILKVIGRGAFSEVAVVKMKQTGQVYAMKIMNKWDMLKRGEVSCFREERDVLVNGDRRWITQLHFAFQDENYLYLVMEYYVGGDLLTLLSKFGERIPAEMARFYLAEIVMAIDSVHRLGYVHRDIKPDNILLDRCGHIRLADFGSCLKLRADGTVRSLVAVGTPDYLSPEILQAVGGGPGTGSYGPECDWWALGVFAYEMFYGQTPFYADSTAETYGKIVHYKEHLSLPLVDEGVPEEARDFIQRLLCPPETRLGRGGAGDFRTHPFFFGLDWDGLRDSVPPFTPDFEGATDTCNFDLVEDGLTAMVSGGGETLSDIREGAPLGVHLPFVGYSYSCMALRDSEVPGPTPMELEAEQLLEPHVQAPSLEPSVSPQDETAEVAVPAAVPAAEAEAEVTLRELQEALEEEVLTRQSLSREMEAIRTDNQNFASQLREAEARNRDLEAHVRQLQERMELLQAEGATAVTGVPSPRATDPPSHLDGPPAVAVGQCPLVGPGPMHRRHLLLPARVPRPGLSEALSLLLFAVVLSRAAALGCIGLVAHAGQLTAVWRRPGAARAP
The note with it: 10 µM, n=1; kinase DMPK; read-out: Percent inhibition DMPK. In a few lines: as §1

T4 sequence (Q96NX5 whole entry): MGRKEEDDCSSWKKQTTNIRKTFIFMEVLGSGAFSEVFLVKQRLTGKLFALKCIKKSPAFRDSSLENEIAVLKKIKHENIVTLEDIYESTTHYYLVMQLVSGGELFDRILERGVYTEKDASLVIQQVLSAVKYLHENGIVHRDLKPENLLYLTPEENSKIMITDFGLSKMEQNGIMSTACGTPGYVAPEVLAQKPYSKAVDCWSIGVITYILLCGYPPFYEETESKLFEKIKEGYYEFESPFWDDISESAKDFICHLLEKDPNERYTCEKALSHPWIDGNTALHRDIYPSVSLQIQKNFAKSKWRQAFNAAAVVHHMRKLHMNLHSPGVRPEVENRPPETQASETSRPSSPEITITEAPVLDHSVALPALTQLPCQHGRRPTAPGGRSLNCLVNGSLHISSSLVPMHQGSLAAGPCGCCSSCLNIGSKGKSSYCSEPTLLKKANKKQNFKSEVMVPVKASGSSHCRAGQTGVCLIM
T1 sequence (Q9Y6R4 whole entry): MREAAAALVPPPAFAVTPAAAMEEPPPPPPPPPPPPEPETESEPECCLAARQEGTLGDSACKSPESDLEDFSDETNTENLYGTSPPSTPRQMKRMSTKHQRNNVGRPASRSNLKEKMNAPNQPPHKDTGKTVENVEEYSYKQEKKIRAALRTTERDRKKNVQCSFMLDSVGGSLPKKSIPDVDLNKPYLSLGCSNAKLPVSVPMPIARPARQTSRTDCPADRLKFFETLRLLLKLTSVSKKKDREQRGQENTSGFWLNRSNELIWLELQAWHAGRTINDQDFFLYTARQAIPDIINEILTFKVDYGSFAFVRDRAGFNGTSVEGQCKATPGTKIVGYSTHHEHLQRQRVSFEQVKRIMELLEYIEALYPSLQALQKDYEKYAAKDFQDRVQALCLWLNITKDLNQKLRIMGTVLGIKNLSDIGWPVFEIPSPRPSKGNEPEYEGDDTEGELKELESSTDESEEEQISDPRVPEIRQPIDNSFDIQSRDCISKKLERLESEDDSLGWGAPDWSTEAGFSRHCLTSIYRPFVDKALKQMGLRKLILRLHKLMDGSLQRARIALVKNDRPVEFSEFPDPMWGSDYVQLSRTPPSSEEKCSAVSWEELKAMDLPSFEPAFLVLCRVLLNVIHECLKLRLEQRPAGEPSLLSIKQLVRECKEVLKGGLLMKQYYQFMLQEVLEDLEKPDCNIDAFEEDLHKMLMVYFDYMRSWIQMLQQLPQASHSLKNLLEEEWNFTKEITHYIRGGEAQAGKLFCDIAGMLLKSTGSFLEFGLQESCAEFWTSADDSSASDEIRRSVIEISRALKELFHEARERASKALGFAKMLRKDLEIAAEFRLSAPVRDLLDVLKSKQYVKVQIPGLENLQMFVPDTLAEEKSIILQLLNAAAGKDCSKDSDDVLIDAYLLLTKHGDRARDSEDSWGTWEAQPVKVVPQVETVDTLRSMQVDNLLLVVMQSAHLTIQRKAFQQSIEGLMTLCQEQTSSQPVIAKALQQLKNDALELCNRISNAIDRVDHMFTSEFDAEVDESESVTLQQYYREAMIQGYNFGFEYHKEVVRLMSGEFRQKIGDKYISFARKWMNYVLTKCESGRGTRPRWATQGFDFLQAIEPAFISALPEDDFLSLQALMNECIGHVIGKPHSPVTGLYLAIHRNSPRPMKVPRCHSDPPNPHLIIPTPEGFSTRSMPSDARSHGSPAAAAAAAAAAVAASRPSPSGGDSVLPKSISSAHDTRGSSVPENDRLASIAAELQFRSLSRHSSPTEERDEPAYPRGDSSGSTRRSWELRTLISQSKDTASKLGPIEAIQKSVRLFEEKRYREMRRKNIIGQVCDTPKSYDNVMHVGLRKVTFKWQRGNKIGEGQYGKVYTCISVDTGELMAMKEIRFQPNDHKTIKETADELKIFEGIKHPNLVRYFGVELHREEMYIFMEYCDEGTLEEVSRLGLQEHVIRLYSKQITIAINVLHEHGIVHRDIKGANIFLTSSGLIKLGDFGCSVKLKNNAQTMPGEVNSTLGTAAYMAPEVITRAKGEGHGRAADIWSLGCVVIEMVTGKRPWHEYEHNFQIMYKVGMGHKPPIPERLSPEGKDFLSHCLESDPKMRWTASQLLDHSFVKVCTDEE

For `CN1CCN(c2ccc(Nc3nccc(-c4cnn5ncccc45)n3)cc2C#N)CC1` [Compound 1], the inhibition at 10 µM was determined as 91% at panel of 203 kinases [1]; 94.3% at panel of 203 kinases [2]; 0% at panel of 203 kinases [3]; 90.5% on panel of 203 kinases [4]; 0% at panel of 203 kinases [5].

`COc1ccc(Nc2nccc(-c3cnn4ncccc34)n2)cc1` [Compound 2]: the inhibition at 10 µM came to 0% on panel of 203 kinases [1]; 92.5% on panel of 203 kinases [2]; 0% on panel of 203 kinases [3]; 71.5% on panel of 203 kinases [4]; 0% at panel of 203 kinases [5].

Consider `Cc1ccc(O)cc1Nc1ccnc(Nc2cccc(C(N)=O)c2)n1` [Compound 3], for which the inhibition at 10 µM at panel of 203 kinases [1] was 0%; at panel of 203 kinases [2] it was 100%; at panel of 203 kinases [3] it was 100%; at panel of 203 kinases [4] it was 0%; at panel of 203 kinases [5] it was 0%.

Turning to `Cc1ccc(O)cc1N(C)c1ccnc(Nc2cccc(S(N)(=O)=O)c2)n1` [Compound 4], the inhibition at 10 µM is 0% on panel of 203 kinases [1]; 100% on panel of 203 kinases [2]; 100% on panel of 203 kinases [3]; 0% at panel of 203 kinases [4]; 0% at panel of 203 kinases [5].

For `Fc1cccc(COc2ccc(Nc3ncnc4c3CN(CCN3CCOCC3)CC4)cc2Cl)c1` [Compound 6], the inhibition at 10 µM on panel of 203 kinases [1], at panel of 203 kinases [2], on panel of 203 kinases [3], at panel of 203 kinases [4] and at panel of 203 kinases [5] was 0% throughout.

For `COc1cc(Nc2nccc(-c3sc(N)nc3-c3cccc(NC(=O)c4c(F)cccc4F)c3)n2)cc(OC)c1OC` [Compound 7], the inhibition at 10 µM at panel of 203 kinases [1] was found to be 99.6%; at panel of 203 kinases [2], 100%; at panel of 203 kinases [3], 99.4%; at panel of 203 kinases [4] it was 69.4%; on panel of 203 kinases [5], 87.5%.

`C[C@@H](Oc1cc(-c2cnc3ccccn23)sc1C(N)=O)c1ccccc1Cl` [Compound 8]: the inhibition at 10 µM at panel of 203 kinases [1], on panel of 203 kinases [2], on panel of 203 kinases [3], at panel of 203 kinases [4] and on panel of 203 kinases [5] was 0% in each case.

Take `c1ccc(COc2cccc(-c3ccnc4[nH]ccc34)c2)cc1` [Compound 9]: the inhibition at 10 µM at panel of 203 kinases [1], on panel of 203 kinases [2], on panel of 203 kinases [3], on panel of 203 kinases [4] and on panel of 203 kinases [5] was 0% throughout.

`Clc1ccc(Nc2ncc(-c3ccccc3)s2)cc1` [Compound 10]: the inhibition at 10 µM at panel of 203 kinases [1], at panel of 203 kinases [2], at panel of 203 kinases [3], at panel of 203 kinases [4] and at panel of 203 kinases [5] was 0% in each case.

Regarding `Nc1ncc2c(-c3ccncc3)c[nH]c2n1` [Compound 11], the inhibition at 10 µM on panel of 203 kinases [1] stood at 0%; on panel of 203 kinases [2], 0%; at panel of 203 kinases [3], 62.6%; on panel of 203 kinases [4] it was 0%; on panel of 203 kinases [5], 0%.
